The values below come from article PMC6506615, “Internalization of Erythrocyte Acylpeptide Hydrolase Is Required for Asexual Replication of Plasmodium falciparum” (mSphere, 2019).

SMILES strings stand for the structures.

In this assay the target is T1, acylpeptide hydrolase (APEH) (Homo sapiens, UniProt P13798).
T1 sequence (P13798 1-732): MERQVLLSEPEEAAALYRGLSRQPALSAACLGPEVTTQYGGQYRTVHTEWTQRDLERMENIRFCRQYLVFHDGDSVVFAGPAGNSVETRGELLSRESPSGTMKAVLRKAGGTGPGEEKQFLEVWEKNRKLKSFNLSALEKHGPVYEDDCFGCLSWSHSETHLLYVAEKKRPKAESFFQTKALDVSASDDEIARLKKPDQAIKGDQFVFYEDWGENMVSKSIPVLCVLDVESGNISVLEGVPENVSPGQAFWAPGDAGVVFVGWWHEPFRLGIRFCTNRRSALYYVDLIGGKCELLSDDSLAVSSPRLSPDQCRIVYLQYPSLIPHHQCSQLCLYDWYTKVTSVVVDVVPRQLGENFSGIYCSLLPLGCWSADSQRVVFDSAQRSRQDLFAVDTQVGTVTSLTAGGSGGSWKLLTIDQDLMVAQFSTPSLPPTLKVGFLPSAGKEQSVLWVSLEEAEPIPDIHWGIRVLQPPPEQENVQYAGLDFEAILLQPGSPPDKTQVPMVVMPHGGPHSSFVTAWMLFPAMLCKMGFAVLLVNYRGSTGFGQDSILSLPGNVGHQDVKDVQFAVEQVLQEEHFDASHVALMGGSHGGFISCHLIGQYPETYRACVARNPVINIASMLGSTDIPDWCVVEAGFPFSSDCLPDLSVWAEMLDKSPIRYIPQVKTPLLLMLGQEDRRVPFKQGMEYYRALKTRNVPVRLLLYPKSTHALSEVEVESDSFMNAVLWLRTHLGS
Description: competitive ABPP with TAMRA-FP in human erythrocyte lysate and saponin-isolated parasite lysate; also intact erythrocytes. The class given is biochemical.

The term IC50 denotes the midpoint of a concentration-inhibition curve. On to `CC(C)CC(O)(CC(C)C)c1cnn(C(=O)N2CCCC2)n1` [AA74-1], for which the IC50 was 7.4 ± 2.4 nM.
